Test results published in PMC8537897, “Design, Synthesis and Biological Evaluation of Aromatase Inhibitors Based on Sulfonates and Sulfonamides of Resveratrol” (Pharmaceuticals, 2021).
Like-named read-outs stand apart in the source and are kept apart here.

Experiments:
human aromatase = molecular target: T1, human aromatase (Homo sapiens, UniProt P11511); assay: Aromatase inhibition, fluorimetric assay kit (Aromatase-CYP19A Inhibitor Screening kit, BioVision); type: biochemical; conditions: for Aromatase inhibition (in words): screening at 1 µM
T1 construct: purchased BioVision, Milpitas, CA, USA
T1 sequence (P11511 1-503): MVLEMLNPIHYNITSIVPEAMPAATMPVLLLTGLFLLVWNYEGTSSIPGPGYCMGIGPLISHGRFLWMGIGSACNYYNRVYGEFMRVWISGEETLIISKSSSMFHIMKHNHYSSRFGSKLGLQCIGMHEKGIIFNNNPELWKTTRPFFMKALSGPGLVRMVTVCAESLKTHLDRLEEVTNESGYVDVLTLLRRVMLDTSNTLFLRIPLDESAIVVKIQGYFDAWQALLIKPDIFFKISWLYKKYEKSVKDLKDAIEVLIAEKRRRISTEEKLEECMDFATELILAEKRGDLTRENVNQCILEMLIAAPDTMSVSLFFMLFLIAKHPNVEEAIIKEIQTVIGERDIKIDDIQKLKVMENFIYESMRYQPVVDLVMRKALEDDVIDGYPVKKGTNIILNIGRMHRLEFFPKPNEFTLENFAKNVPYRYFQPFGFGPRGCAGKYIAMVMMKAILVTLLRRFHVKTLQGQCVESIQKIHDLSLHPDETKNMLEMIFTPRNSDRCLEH
Experimental: The activity was measured each minute for 60 min and the value obtained for each compound after 10 min was chosen to calculate the percentage of the aromatase inhibition.
The aromatase inhibitory activity was determined using a commercial fluorimetric assay kit (Aromatase-CYP19A Inhibitor Screening kit, BioVision, Milpitas, CA, USA), as reported elsewhere. The assay utilizes a fluorogenic aromatase substrate that is converted into a highly fluorescent metabolite detected in the visible range (Ex/Em 488/527 nm). […] During the incubation, the Aromatase Substrate/NADP+ mixture was prepared, and the reaction was started by adding 30 µL of this solution to each well (aside from the background control), reaching a final reaction volume of 100 µL/well. The fluorescence emission (527 nm) was measured immediately (within 1 min) by means of a fluorometer equipped with a 488 nm filter (GloMax®-Multi Detection System, Promega, Madison, WI, USA) and afterwards monitored for 60 min. […] The assay was performed in the same experimental conditions used for the initial screening of compounds. Dose–response curves were fitted with GraphPad Prism 5.0 (GraphPad Software, San Diego, CA, USA).

[1] = system: MCF7 breast cancer cell line; assay: Cell metabolic activity / viability (MTT assay) on MCF7; type: cell-based, human; conditions: for IC50: Homo sapiens, MTT, tested 0 to 500 µM;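 for all read-outs here: MTT optical density read-out in human MCF7 cells, normalised to DMSO vehicle-treated cells as 100%, with IC50 derived from fitted concentration–response curves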
Experimental: Human skin fibroblasts (HFF-1, CVCL_3285) and human breast cancer MCF7 (HTB-22™, CVCL_0031) were purchased from ATCC and maintained in Dulbecco’s modified Eagle’s medium (DMEM) high glucose (EuroClone, Milan, Italy) supplemented with 10% of fetal bovine serum (FBS) and 1% of penicillin/streptomycin (Gibco—Thermo Fisher Scientific, MD, USA).
Cell metabolic activity of HFF-1 and MCF7 cells was assessed by MTT (3-(4,5-Dimethylthiazol-2-yl)-2,5-Diphenyltetrazolium Bromide) test (Sigma Aldrich, Milan, Italy). […] After the established exposure times, cells were incubated with MTT (0.5 mg/mL) and the optical density was measured as reported elsewhere [63]. Results were expressed as the percentage of cells in the presence of vehicle (DMSO) set as 100% and each experiment was performed in triplicate (n = 3). Concentration–response curves and IC50 were fitted and calculated with GraphPad Prism 5.0 (GraphPad Software, San Diego, CA, USA).

MCF7 cells = assay: Cytotoxicity test (lactate dehydrogenase release); type: cell-based, human; conditions: MCF7, 0–250 µM, 24 h
Experimental: To assess whether the decrease in metabolic activity is a consequence of cytotoxic occurrence in the presence of compounds 1b, 1c, and 1j, lactate dehydrogenase (LDH) released from MCF7 was measured in response to loading concentrations of 0–250 µM after a 24 h exposure. […] It is, therefore, plausible to assume that all tested compounds exert their anti-proliferative effect on MCF7 cells through cytotoxic induction and 1c is the most promising compound, being active already at lower doses.
MCF7 cells were seeded and stimulated as previously described for the MTT test. After the exposure time, cell supernatants were collected, centrifuged at 450× g for 4 min, and stored on ice. In order to quantify the cytotoxicity of loading concentrations of compounds 1b, 1c, and 1j (0–250 µM), the CytoTox 96® Non-Radioactive Cytotoxicity Assay (Promega Corporation, Madison, WI, USA) was performed as previously reported. The results were normalized on MTT absorbances and expressed as fold increases on the LDH released by cultures in the presence of vehicle (DMSO) set as 1.

[2] = MCF7, 24 h, 24 h, read-out: MCF7 Cells IC50 24 h
[3] = MCF7, 72 h, 72 h, read-out: MCF7 Cells IC50 72 h

Q: With `O=S(=O)(Oc1ccc(/C=C/c2ccccc2)cc1)c1ccccc1` [1a, 4-[(E)-2-Phenylvinyl]phenylbenzenesulfonate] as the molecule, how does the “Aromatase inhibition (in words)” value (human aromatase) read?
A: very low activity

Q: And the melting point?
A: 127 to 130 °C

Q: For `O=[N+]([O-])c1cccc(S(=O)(=O)Oc2ccc(/C=C/c3ccccc3)cc2)c1` [1b, 4-[(E)-2-Phenylvinyl]phenyl 3-nitrobenzenesulfonate], which inhibition at 1 µM (human aromatase) is on record?
A: 97%

Q: And the IC50 (human aromatase; tested at concentrations from 0.01 to 100 μM, mean of triplicate determinations)?
A: 2.51 µM

Q: And the melting point?
A: 152 to 155 °C

Q: What about the IC50 [1, 2] of the same molecule?
A: 159 ± 9.9 µM

Q: And the IC50 [1, 3]?
A: 240 ± 6.7 µM

Q: And the “Viability (% of control) - 24 h” value ([1]; MCF7, 10 µM, 24 h)?
A: 69.32 ± 14.99 % of control

Q: What about the “Viability (% of control) - 72 h” value ([1]; MCF7, 10 µM, 72 h) of the same molecule?
A: 98.33 ± 5.24 % of control

Q: And the “Viability (% of control) - 24 h” value ([1]; MCF7, 25 µM, 24 h)?
A: 79.12 ± 9.66 % of control

Q: What about the “Viability (% of control) - 72 h” value ([1]; MCF7, 25 µM, 72 h) of the same molecule?
A: 99.99 ± 9.30 % of control

Q: What about the “Viability (% of control) - 24 h” value ([1]; MCF7, 50 µM, 24 h) of the same molecule?
A: 80.69 ± 4.08 % of control

Q: And the “Viability (% of control) - 72 h” value ([1]; MCF7, 50 µM, 72 h)?
A: 93.39 ± 5.39 % of control

Q: What about the “Viability (% of control) - 24 h” value ([1]; MCF7, 100 µM, 24 h) of the same molecule?
A: 73.93 ± 1.87 % of control

Q: What about the “Viability (% of control) - 72 h” value ([1]; MCF7, 100 µM, 72 h) of the same molecule?
A: 77.31 ± 7.02 % of control

Q: And the “Viability (% of control) - 24 h” value ([1]; MCF7, 250 µM, 24 h)?
A: 45.57 ± 3.42 % of control

Q: And the “Viability (% of control) - 72 h” value ([1]; MCF7, 250 µM, 72 h)?
A: 57.01 ± 1.01 % of control

Q: And the “Viability (% of control) - 24 h” value ([1]; MCF7, 500 µM, 24 h)?
A: 35.83 ± 2.22 % of control

Q: What about the “Viability (% of control) - 72 h” value ([1]; MCF7, 500 µM, 72 h) of the same molecule?
A: 36.11 ± 0.35 % of control

Q: What about the “LDH release, dose dependence (in words)” value (MCF7 cells) of the same molecule?
A: raises only at the highest concentration administered (250 µM)

Q: With `N#Cc1ccc(S(=O)(=O)Oc2ccc(/C=C/c3ccccc3)cc2)cc1` [1e, 4-[(E)-2-Phenylvinyl]phenyl 4-cyanobenzenesulfonate] as the molecule, how does the inhibition at 1 µM (human aromatase) read?
A: 56.1%

Q: Which melting point does the source give for `COc1ccc(S(=O)(=O)Oc2ccc(/C=C/c3ccccc3)cc2)c(OC)c1` [1g, 4-[(E)-2-Phenylvinyl]phenyl 2,4-dimethoxybenzenesulfonate] here?
A: 141 to 142 °C

Q: For `CCS(=O)(=O)Oc1ccc(/C=C/c2ccccc2)cc1` [1i, 4-[(E)-2-Phenylvinyl]phenyl ethanesulfonate], which inhibition at 1 µM (human aromatase) is on record?
A: 100%

Q: What about the melting point of the same molecule?
A: 112 to 114 °C

Q: What does the source list for `O=S(=O)(Oc1ccc(/C=C/c2ccccc2)cc1)c1ccc(Cl)s1` [1k, 4-[(E)-2-Phenylvinyl]phenyl 5-chlorothiophene-2-sulfonate]?
A: inhibition at 1 µM (human aromatase): 60.3%; melting point: 160 to 162 °C

Q: Which inhibition at 1 µM (human aromatase) does the source give for `O=S(=O)(Nc1ccc(/C=C/c2ccccc2)cc1)c1ccccc1` [2a, N-{4-[(E)-2-Phenylvinyl]phenyl}benzenesulfonamide] here?
A: 47.8%

Q: What about the melting point of the same molecule?
A: 160 to 162 °C

Q: Which inhibition at 1 µM (human aromatase) does the source give for `O=[N+]([O-])c1cccc(S(=O)(=O)Nc2ccc(/C=C/c3ccccc3)cc2)c1` [2b, 3-Nitro-N-{4-[(E)-2-phenylvinyl]phenyl}benzenesulfonamide] here?
A: 67.3%

Q: What about the melting point of the same molecule?
A: 210 to 211 °C

Q: Which inhibition at 1 µM (human aromatase) does the source give for `Cc1ccc(S(=O)(=O)Nc2ccc(/C=C/c3ccccc3)cc2)cc1[N+](=O)[O-]` [2c, 4-Methyl-3-nitro-N-{4-[(E)-2-phenylvinyl]phenyl}benzenesulfonamide] here?
A: 44.8%

Q: What about the melting point of the same molecule?
A: 246 to 247 °C

Q: Which melting point does the source give for `Cc1ccc(S(=O)(=O)Nc2ccc(/C=C/c3ccccc3)cc2)cc1` [2d, 4-Methyl-N-{4-[(E)-2-phenylvinyl]phenyl}benzenesulfonamide] here?
A: 182 to 183 °C

Q: With `N#Cc1ccc(S(=O)(=O)Nc2ccc(/C=C/c3ccccc3)cc2)cc1` [2e, 4-Cyano-N-{4-[(E)-2-phenylvinyl]phenyl}benzenesulfonamide] as the molecule, how does the melting point read?
A: 238 to 239 °C

Q: For `CC(=O)Nc1ccc(S(=O)(=O)Nc2ccc(/C=C/c3ccccc3)cc2)cc1` [2f, N-{4-[({4-[(E)-2-Phenylvinyl]phenyl}amino)sulfonyl]phenyl}acetamide], which melting point is on record?
A: 230 to 231 °C

Q: With `COc1ccc(S(=O)(=O)Nc2ccc(/C=C/c3ccccc3)cc2)c(OC)c1` [2g, 2,4-Dimethoxy-N-{4-[(E)-2-phenylvinyl]phenyl}benzenesulfonamide] as the molecule, how does the melting point read?
A: 213 to 215 °C

Q: For `CS(=O)(=O)Nc1ccc(/C=C/c2ccccc2)cc1` [2h, N-{4-[(E)-2-Phenylvinyl]phenyl}methanesulfonamide], which melting point is on record?
A: 250 to 251 °C

Q: Which melting point does the source give for `CCS(=O)(=O)Nc1ccc(/C=C/c2ccccc2)cc1` [2i, N-{4-[(E)-2-Phenylvinyl]phenyl}ethanesulfonamide] here?
A: 230 to 231 °C

Q: Which “Aromatase inhibition (in words)” value (human aromatase) does the source give for `O=S(=O)(Nc1ccc(/C=C/c2ccccc2)cc1)c1ccc(Cl)s1` [2k, 5-Chloro-N-{4-[(E)-2-phenylvinyl]phenyl}thiophene-2-sulfonamide] here?
A: inactive

Q: What about the melting point of the same molecule?
A: 200 to 202 °C

Q: Which IC50 [1, 2] does the source give for `Oc1ccc(/C=C/c2cc(O)cc(O)c2)cc1` [RSV, trans-3,4′,5-trihydroxystilbene, reference compound] here?
A: > 250 µM

Q: What about the IC50 [1, 3] of the same molecule?
A: 83 ± 3.8 µM

Q: And the “Viability (% of control) - 24 h” value ([1]; MCF7, 10 µM, 24 h)?
A: 80.27 ± 3.18 % of control

Q: What about the “Viability (% of control) - 72 h” value ([1]; MCF7, 10 µM, 72 h) of the same molecule?
A: 91.92 ± 5.44 % of control

Q: What about the “Viability (% of control) - 24 h” value ([1]; MCF7, 25 µM, 24 h) of the same molecule?
A: 84.94 ± 6.59 % of control

Q: What about the “Viability (% of control) - 72 h” value ([1]; MCF7, 25 µM, 72 h) of the same molecule?
A: 73.93 ± 9.52 % of control

Q: What about the “Viability (% of control) - 24 h” value ([1]; MCF7, 50 µM, 24 h) of the same molecule?
A: 87.44 ± 1.93 % of control

Q: And the Metabolically active cells ([1]; MCF7, 50 µM, 24 h, DMSO alone = 100%)?
A: slightly active at this concentration

Q: And the “Viability (% of control) - 72 h” value ([1]; MCF7, 50 µM, 72 h)?
A: 66.54 ± 5.77 % of control

Q: And the “Viability (% of control) - 24 h” value ([1]; MCF7, 100 µM, 24 h)?
A: 78.29 ± 4.03 % of control

Q: And the “Viability (% of control) - 72 h” value ([1]; MCF7, 100 µM, 72 h)?
A: 47.75 ± 2.67 % of control

Q: And the “Viability (% of control) - 24 h” value ([1]; MCF7, 250 µM, 24 h)?
A: 60.29 ± 0.93 % of control

Q: And the “Viability (% of control) - 72 h” value ([1]; MCF7, 250 µM, 72 h)?
A: 38.05 ± 8.70 % of control

Q: What about the “Viability (% of control) - 24 h” value ([1]; MCF7, 500 µM, 24 h) of the same molecule?
A: 34.30 ± 5.01 % of control

Q: And the “Viability (% of control) - 72 h” value ([1]; MCF7, 500 µM, 72 h)?
A: 15.33 ± 4.88 % of control
